The test system of one series is CYP3A4. More on the design: method as in Hao et al.(2008). The settings on record: baculosomes, ref Hao et al.(2008); cited from earlier work.
Substrate in series [1]: CC(C)=CCC[C@](C)(OC1O[C@H](CO)[C@@H](O)[C@H](O)[C@H]1O)[C@H]1CC[C@]2(C)[C@@H]1[C@H](O)C[C@@H]1[C@@]3(C)CC[C@H](O)C(C)(C)[C@@H]3CC[C@]12C
Description: Kinetic analysis of CK metabolism by recombinant CYP2C9. The settings on record: other: recombinant CYP2C9 10 pmol, CK 10–100 μM; pH 7.4; 37.0 °C. Type of series: in vitro ADME, human. As for the experimental part:
The method was conducted according to our previous study with some modifications. The CYP isoform-specific probe reactions used were phenacetin O-deethylation (for CYP1A2), coumarin 7-hydroxylation (for CYP2A6), tolbutamide 4-hydroxylation (for CYP2C9), metoprolol α-hydroxylation (for CYP2D6), chlorzoxazone 6-hydroxylation (for CYP2E1),S-Mephenytoin 4-hydroxylation (for CYP2C19), and midazolam 1-hydroxylation (for CYP3A4). The kinetic study of CK was conducted with HLMs. A 0.2 mL incubation mixture that consisted of CK (as a substrate), the HLMs (0.5 mg/mL) or CYP isoforms (10 pmol), and 0.1 M sodium phosphate buffer (pH 7.4) was pre-warmed for 5 min at 37°C. The reaction was initiated by the addition of 1 mg/mL triphosphopyridine nucleotide (NADPH). […]
The kinetic parameters for the metabolism of CK were determined by incubating increasing concentrations of CK (10–100 μM) at 37°C with the HLMs and NADPH under the incubation conditions as described in detail previously. The equation of CK reaction velocity (V) in the HLMs or CYP isoforms is expressed as V = (C0–Ct)/T/Cp, where C0and Ct are the initial and final concentrations of CK in the incubation solution, respectively, T is the incubation time (min), and Cp is the protein concentration (mg/mL or nmol). All values were expressed as the mean±standard deviation (SD). […]

`CC(C)=CCC[C@](C)(O)[C@H]1CC[C@]2(C)[C@@H]1[C@H](O)C[C@@H]1[C@@]3(C)CC[C@H](O[C@@H]4O[C@H](CO)[C@@H](O)[C@H](O)[C@H]4O)C(C)(C)[C@@H]3CC[C@]12C` [Rh2, reference compound]: the CYP3A4 inhibition entry in the series with CYP3A4 is “moderate”.

B1: recombinant CYP2C9 (Homo sapiens) (protein)
chain: MDSLVVLVLCLSCLLLLSLWRQSSGRGKLPPGPTPLPVIGNILQIGIKDISKSLTNLSKVYGPVFTLYFGLKPIVVLHGYEAVKEALIDLGEEFSGRGIFPLAERANRGFGIVFSNGKKWKEIRRFSLMTLRNFGMGKRSIEDRVQEEARCLVEELRKTKASPCDPTFILGCAPCNVICSIIFHKRFDYKDQQFLNLMEKLNENIKILSSPWIQICNNFSPIIDYFPGTHNKLLKNVAFMKSYILEKVKEHQESMDMNNPQDFIDCFLMKMEKEKHNQPSEFTIESLENTAVDLFGAGTETTSTTLRYALLLLLKHPEVTAKVQEEIERVIGRNRSPCMQDRSHMPYTDAVVHEVQRYIDLLPTSLPHAVTCDIKFRNYLIPKGTTILISLTSVLHDNKEFPNPEMFDPHHFLDEGGNFKKSKYFMPFSAGKRICVGEALAGMELFLFLTSILQNFNLKSLVDPKNLDTTPVVNGFASVPPFYQLCFIPV
notes: purchased Cypex Ltd. (U.K.)
As for B1, the Km (in general, the concentration of substrate that gives half-maximal velocity) in series [1] was determined as 34.63 ± 10.48 µM.

The values above are taken from PMC4742234, “Screening of Drug Metabolizing Enzymes for the Ginsenoside Compound K In Vitro: An Efficient Anti-Cancer Substance Originating from Panax Ginseng” (PLoS ONE, 2016).
